Results from publication PMC8279416, “Structural Fine-Tuning of Desmuramylpeptide NOD2 Agonists Defines Their In Vivo Adjuvant Activity” (Journal of Medicinal Chemistry, 2021).

Key:
[1] = test system: human PBMCs; assay: Cytokine release from peripheral blood mononuclear cells (cytometric bead array); type: cell-based; settings: 2 μM, 18 h, without LPS
Procedure: The immunostimulatory effects of the selected desmuramylpeptides were evaluated using human primary peripheral blood mononuclear cells (PBMCs). This heterogeneous mixture of immune cells allowed the study of the effects of these NOD2 agonists in a physiologically relevant system, where other NOD2-interacting and downstream signaling proteins were present. The effects of desmuramylpeptides were first determined for the secreted cytokine profile using a cytometric bead array cytokine kit. Moreover, considering that activation of NOD2 is also an important amplification signal for Toll-like receptor (TLR)-induced inflammatory responses,[79]−[81] we also examined the effects on cytokine secretion of the combination of desmuramylpeptides with LPS, a well-known TLR4 agonist.
In line with previous studies, the effects of MDP and the desmuramylpeptides were most pronounced for the induction of the chemokine IL-8.[82]
Peripheral blood mononuclear cells were seeded (1 × 10^6 cells/mL) in 48-well plates in 500 μL of growth medium and treated with the compounds (2 μM) or with the corresponding vehicle (0.1% DMSO) in the absence and presence of LPS (10 ng/mL). Cell-free supernatants were collected after 18 h of incubation (37 °C, 5% CO2) and stored at −80 °C until tested. Cytokine production was determined with the BD Cytometric Bead Array Human Inflammatory Cytokines Kit (contents: IL-8, IL-1β, IL-6, IL-10, TNF, IL-12p70; BD Bioscience) on an Attune NxT flow cytometer (Thermo Fisher Scientific, Waltham, MA, U.S.A.). Standard curves were generated using recombinant cytokines contained in the kit. The data were analyzed using the FlowJo (Tree Star, Inc., Ashland, OR, U.S.A.) and Prism (GraphPad, San Diego, CA, U.S.A.) software. The experiments were repeated as four independent biological replicates. Statistical significance was determined by repeated measures one-way ANOVA followed with Dunnett’s multiple comparisons test.

[2] = test system: NIH/OlaHsd mice; assay: In vivo ovalbumin-specific antibody response, first experiment (neutral liposomes); parameters: species or system mouse; settings: for Log10 (anti-OVA IgG1/anti-OVA IgG2a): first in vivo experiment, one week after the booster dose, mean ± SEM of 5 mice; for Boost in the elicited ovalbumin-specific IgG response: vs liposomes without adjuvant
Procedure: To determine whether enhanced antigen presentation in vitro is correlated to in vivo adjuvant activities, an immunization study was performed in a murine model of adjuvanticity. Specifically, the selected desmuramylpeptides were investigated for induction of systemic immune responses against the model antigen ovalbumin. Seven groups of NIH/OlaHsd mice were immunized with ovalbumin-containing neutral liposomes, either alone or with additional adjuvants of MDP or the desmuramylpeptides 1, 68, 74, 75, or 81. After immunization and one booster dose, the mice sera were collected and assayed for ovalbumin-specific IgG antibodies (Figure 10).
Multilamellar liposomes were prepared by the modified thin lipid film method as described previously.[130],[131] For the preparation of neutral liposomes, a 7:5 molar ratio of egg-phosphatidylcholine and cholesterol was used. For the preparation of negatively charged liposomes, a 7:5:1 molar ratio of egg-phosphatidylcholine, cholesterol, and dicetylphosphate was used, while a 7:5:0.5 molar ratio of egg-phosphatidylcholine, cholesterol, and Man-PEG-Pam was used in the preparation of mannosylated liposomes. Lipids (total lipid concentration, 4 mg/mL) were dissolved in chloroform/methanol (2:1). A methanol or chloroform/methanol solution of MDP or the desmuramylpeptides was added to the lipid solution for a final concentration of 2 mM and 1.5 mM for the first (Figure 10) and second (Figure 11) experiments, respectively. After rotary evaporation of the solvent, the remaining lipid film was dried in vacuum for 1 h and then dispersed by gentle handshaking in an ovalbumin solution in saline (0.0667 and 0.1 mg/mL for the first and second experiments, respectively). This was then left overnight at 4 °C to swell and stabilize. Liposome size was reduced by sonification. Nonentrapped material was not separated from liposomes, and the complete liposome suspension was used for immunizations.
For the first experiment (Figure 10), sex-matched NIH/OlaHsd mice (five per group) were immunized subcutaneously in the tail base and boosted one time after 21 days. The injection volume in all experimental groups was 0.15 mL per mouse, which corresponds to 10 μg of OVA, […], and 0.30 μmol of MDP and desmuramylpeptides. For the second experiment (Figure 11), sex-matched NIH/OlaHsd mice (five per group) were immunized and boosted two times subcutaneously into the tail base at 21-day intervals. The injection volume in all experimental groups was 0.1 mL per mouse, which corresponds to 10 μg of OVA, 400 μg of lipids, and 0.15 μmol of MDP and 75. The mice were anesthetized with ip application of ketamine/xylazine (25 mg/kg each) prior to blood collection from the axillary plexus on the seventh day after the last booster dose. Individual serum from each animal was decomplemented at 56 °C for 30 min and then stored at −20 °C until tested.
ELISA assays were performed as detailed previously.[46] Briefly, high-binding ELISA plates (Costar, U.S.A.) were coated with a 15 μg/mL solution of ovalbumin in carbonate buffer, pH 9.6, and incubated overnight at room temperature. Nonspecific antibody binding was blocked with 0.5% w/v bovine serum albumin in PBS-T (0.05% (v/v) Tween 20 in phosphate-buffered saline) for 2 h at 37 °C. After washing, five serial dilutions of mice sera and standard preparations were added in duplicate. Plates were incubated overnight at room temperature, washed, and analyzed for ovalbumin-specific IgG levels by incubation with HRP-conjugated goat anti-mouse IgG (2 h at 37 °C) and then, after washing, with 0.6 mg/mL o-phenylenediaminedihydrochloride solution in citrate-phosphate buffer, pH 5.0, with 0.5 μL of 30% H2O2 per milliliter for 30 min at room temperature in the dark. The enzymatic reaction was stopped with 12.5% H2SO4, and absorbance at 492 nm was measured using a microplate reader (Thermo Fisher Scientific, Waltham, MA, U.S.A.). […]

[3] = neutral liposomes, 0.30 μmol adjuvant per dose, 1 week after booster
[4] = neutral liposomes, 0.30 μmol adjuvant per dose, s.c., 1 week after booster

Structure (SMILES)	Induction of cytokines IL-1β, IL-6, IL-8 and TNF-α, compound alone [1]	Log10 (anti-OVA IgG1/anti-OVA IgG2a) [2]	Ovalbumin-specific IgG1 response (in words) [2, 3]	Boost in the elicited ovalbumin-specific IgG response [2, 4]	Ovalbumin-specific IgG2a response (in words) [2, 3]	Adjuvant activity: ovalbumin-specific IgG (in words) [2, 4]
CCCCCCCCCCCCCCCCCC(=O)Oc1ccc(/C=C/C(=O)NCC(=O)N[C@H](C(=O)N[C@H](CCC(=O)OCC)C(=O)OCC)[C@@H](C)O)cc1OC [Compound 81, Diethyl ((E)-3-(3-Methoxy-4-(stearoyloxy)phenyl)acryloyl)glycyl-L-threonyl-D-glutamate]	induced lower responses	2.18 ± 0.24	largely IgG1-based response	3 fold		
COc1cc(/C=C/C(=O)NCC(=O)N[C@H](C(=O)N[C@H](CCC(=O)OC2CCCC2)C(=O)OC2CCCC2)C(C)C)ccc1O [Compound 68, Dicyclopentyl ((E)-3-(4-Hydroxy-3-methoxyphenyl)acryloyl)glycyl-L-valyl-D-glutamate]	induced small increases in the levels of all four of these cytokines	2.28 ± 0.13			slight suppression of the IgG2a response	devoid of adjuvant activity
CCCCCCCCCCCCCCCCCC(=O)Oc1ccc(/C=C/C(=O)NCC(=O)N[C@H](C(=O)N[C@H](CCC(=O)OCC)C(=O)OCC)C(C)C)cc1OC [Compound 75, Diethyl ((E)-3-(3-Methoxy-4-(stearoyloxy)phenyl)acryloyl)glycyl-L-valyl-D-glutamate]	induced lower responses	2.07 ± 0.17	significantly enhanced	5 fold	highest levels of IgG2a antibodies	
